{"source": "patent US5602110A", "about": "“Method and composition for treating cystic fibrosis” (Case Western Reserve University, priority 1995, dated 1997)", "key": {"[1]": {"test_system": "CF nasal polyp epithelial cells homozygous for the ΔF508 mutation", "assay": "36Cl chloride efflux assay in primary CF nasal polyp epithelial cells", "format": "cell-based, human", "details": "for chloride efflux rate increase (chloride transport) in the CF cells: primary CF nasal polyp cells, isoproterenol 10 μM, milrinone 100 μM or IBMX 100 μM as labelled", "procedure": "A test was run to confirm that the chloride efflux in primary CF cells (as opposed to CF-T43 cells used above) is mediated by the cAMP-dependent, protein kinase A pathway and not by calcium-dependent chloride channels. Efflux assays were carried out on primary CF cells, being CF nasal polyp epithelial cells homozygous for the ΔF508 mutation. Any significant contribution of calcium-activated chloride channels was ruled out by incubating the cells in BAPTA-AM, and comparing the response induced by ionomycin to that of albuterol combined with milrinone.\nTransformed cell lines often have altered properties relative to the tissues from which they were derived. To determine if the responses seen in the transformed CF-T43 cells were representative of primary tissue cells, primary epithelial cells from CF nasal polyps were assayed for chloride efflux. Tissues were obtained from nasal polypectomies of CF patients and epithelial cells were isolated by digesting cells from basement membrane by collagenase followed by low speed centrifugations. After counting viable cells, cells were plated and assayed in the same way as the CF-T43 cells. A total of 5 such experiments were performed with polyp cells from different, unrelated patients.\nThe effects of these compounds on chloride permeability were measured as the rate of ^36 Cl efflux after stimulation divided by the basal rate, given as rstim /rbas. […] Both CF types are homozygous for the ΔF508 mutation."}, "[2]": {"test_system": "ΔF508 CFTR in Xenopus laevis oocytes", "details": "high concentrations of IBMX with relatively low concentrations of forskolin; cited from earlier work"}, "[3]": {"test_system": "CF-T43 cells (ΔF508 CFTR)", "assay": "36Cl chloride efflux assay in CF-T43 cells", "format": "cell-based", "details": "for chloride efflux: agent(s) as labelled, no other drug, FIG. 1, FIG. 2; for effect of added agent on chloride efflux stimulated by isoproterenol and milrinone: added to milrinone and isoproterenol, FIG. 2; for chloride efflux rate increase (chloride transport) in the CF cells: CF-T43, isoproterenol 10 μM, milrinone 100 μM or IBMX 100 μM as labelled", "procedure": "(§1) Two independent cell lines, Calu-3 and 16HBE, both derived from airway epithelial cells and both expressing normal CFTR (Shen et al., 1994; Haws et al., 1994; Haws et al., 1992) were assayed for increased Cl transport either by a radioisotopic flux assay or electrophysiologically. Using the method of Venglarik et al. (1990), cells were incubated in a Ringer's solution containing ^36 Cl to allow uptake of isotope into the cells, and then washed to remove external isotopic chloride. Efflux was measured by replacing the incubation solution every 30 seconds and quantitating the amount of ^36 Cl secreted into it. After 6 changes of solution (3 minutes), either drugs or placebos were added to the media. […] Efflux was then measured an additional 12 media changes (6 minutes).\nCF-T43 is an SV40 T-antigen transformed cell line derived from a CF nasal turbinate (Jetten, et al., 1989). These cells maintain many of the original epithelial characteristics, including defective cAMP-dependant chloride transport, and have been used as a model for CF airway cells, CF-T43 cells carry and express only the ΔF508 CFTR mutation. […] With reference to FIG. 1, the control efflux contains Hepes-buffered Ringer's solution (HBR) +0.2% dimethylsulfoxide (DMSO), which is the concentration of DMSO in which the drugs were dissolved. The arrow indicates when the drugs were added. Iso means isoproterenol; Mil means milrinone."}, "[4]": {"test_system": "Calu-3 and 16HBE airway epithelial cells expressing normal CFTR", "assay": "36Cl chloride efflux assay in airway epithelial cell lines expressing normal CFTR", "format": "cell-based", "details": "100 μM each drug alone; Calu-3 and 16HBE cells", "procedure": "The nomenclature for cyclic nucleotide phosphodiesterases, as follows, is taken from Beavo (1990).\nas §1"}, "[5]": {"test_system": "mutant CFTR in CF epithelial cells", "details": "Grubb et al. 1992; cited from earlier work"}, "[6]": {"test_system": "cellular cAMP in CF-T43 cells", "details": "in combination with isoproterenol 10 μM"}, "[7]": {"test_system": "normal CFTR in 293 cells", "details": "forskolin alone; normal type-transfected 293 cells"}, "[8]": {"test_system": "16HBE cells", "assay": "Whole-cell voltage clamp", "format": "cell-based", "procedure": "Whole-cell voltage clamp was used to confirm that the chloride efflux was consistent with CFTR activation. 16HBE cells were exposed to varying concentrations of milrinone and the membrane potential clamped in increments of 10 mV from -150 mV to +50 mV. The resulting current was then plotted as a function of voltage. […] A linear current/voltage relationship is a characteristic of CFTR activation. If currents are carried by chloride there should be a reduction in current at any given voltage when chloride is replaced by an ion to which CFTR is impermeante, such as gluconate."}, "[9]": {"details": "100 μM glibenclamide, CF-T43 cells"}}, "data": [{"compound": "CNCCNS(=O)(=O)c1cccc2cnccc12", "note": "[H-8, N[-2-(methylamino)ethyl]-5-isoquinoline sulfonamide]", "values": [{"measurement": "effect of preincubation on the isoproterenol/milrinone chloride efflux response", "setting": "[1]; CF nasal polyp cells preincubated in H-8", "value": "dramatically reduced"}]}, {"compound": "CC(C)Cn1c(=O)n(C)c(=O)c2[nH]cnc21", "note": "[IBMX, 3-isobutyl-1-methylxanthine]", "values": [{"measurement": "activation of ΔF508 CFTR", "setting": "[2]", "value": "could be activated"}, {"measurement": "chloride efflux", "setting": "[3]; CF-T43 cells", "value": "not provide an increase in efflux rate"}, {"measurement": "increase in chloride efflux rate", "setting": "[4]", "value": "Only the inhibitors specific for type III phosphodiesterases produced detectable increases"}, {"measurement": "activation of a chloride conductance", "setting": "[5]", "value": "unable to activate a chloride conductance"}]}, {"compound": "Nc1ncnc2c1ncn2[C@@H]1O[C@@H]2CO[P@@](O)(=S)O[C@H]2[C@H]1O", "note": "[Rp-cAMPS]", "values": [{"measurement": "effect of added agent on chloride efflux stimulated by isoproterenol and milrinone", "setting": "[3]; CF-T43 cells", "value": "abolished the increase in chloride efflux"}]}, {"compound": "Nc1ncnc2c1ncn2[C@@H]1O[C@@H]2COP(O)(=S)O[C@H]2[C@H]1O", "note": "(stereo partly shown) [Sp-cAMPS, Sp-adenosine 3':5'-cyclic phosphorothioate]", "values": [{"measurement": "effect of added agent on chloride efflux stimulated by isoproterenol and milrinone", "setting": "[3]; CF-T43 cells", "value": "enhanced"}, {"measurement": "chloride efflux", "setting": "[3]; CF-T43 cells", "value": "no effect on chloride efflux"}]}, {"compound": "Nc1cc(-c2ccncc2)c[nH]c1=O", "note": "[amrinone]", "values": [{"measurement": "increase in cellular cAMP over baseline", "setting": "[6]; 15 minutes, CF-T43 cells", "value": "same as milrinone"}, {"measurement": "increase in chloride efflux rate", "setting": "[4]", "value": "greatest increase in chloride efflux rate"}]}, {"compound": "C=C[C@@]1(C)CC(=O)[C@]2(O)[C@@]3(C)[C@@H](O)CCC(C)(C)[C@@H]3[C@H](O)[C@H](OC(C)=O)[C@@]2(C)O1", "note": "[forskolin]", "values": [{"measurement": "activation of chloride efflux", "setting": "[7]", "value": "sufficient to activate"}]}, {"compound": "COc1ccc(Cl)cc1C(=O)NCCc1ccc(S(=O)(=O)NC(=O)NC2CCCCC2)cc1", "note": "[glibenclamide]", "values": [{"measurement": "effect on efflux elicited by ionomycin", "setting": "[3]; [9]", "value": "little effect"}, {"measurement": "inhibition of β-adrenergic agonist/milrinone-stimulated efflux", "setting": "[3]; [9]", "value": "completely inhibited"}]}, {"compound": "C[C@H](CCC(=O)O)C[C@H](C)C[C@H](C)C(=O)/C=C(\\O)[C@H](C)C[C@H](C)C/C=C/[C@@H](C)[C@@H](O)[C@@H](C)[C@@H](O)C[C@@H]1CC[C@@](C)([C@H]2CC[C@@](C)([C@@H](C)O)O2)O1", "note": "[ionomycin]", "values": [{"measurement": "chloride efflux response relative to the isoproterenol/milrinone response", "setting": "[3]; CF-T43 cells", "value": "greater than the isoproterenol/milrinone response"}, {"measurement": "chloride efflux response in the presence of BAPTA-AM", "setting": "[3]; CF-T43 cells, BAPTA-AM added", "value": "eliminated"}, {"measurement": "chloride efflux response in the presence of BAPTA-AM", "setting": "[1]; primary CF nasal polyp cells incubated in BAPTA-AM", "value": "eliminated"}]}, {"compound": "CC(C)NCC(O)c1ccc(O)c(O)c1", "note": "(stereo not shown) [isoproterenol]", "values": [{"measurement": "chloride efflux rate increase (chloride transport) in the CF cells", "setting": "[3]", "value": "neither agent alone elicited a rate increase"}, {"measurement": "chloride efflux", "setting": "[3]; CF-T43 cells", "value": "no effect on chloride efflux"}, {"measurement": "chloride efflux rate increase (chloride transport) in the CF cells", "setting": "[1]", "value": "neither agent alone elicited a rate increase"}]}, {"compound": "Cc1[nH]c(=O)c(C#N)cc1-c1ccncc1", "note": "[milrinone]", "values": [{"measurement": "chloride efflux rate increase (chloride transport) in the CF cells", "setting": "[3]", "value": "neither agent alone elicited a rate increase"}, {"measurement": "reversal potential of current", "setting": "[8]; all concentrations of milrinone", "value": 0, "unit": "mV"}, {"measurement": "current when chloride was replaced by gluconate", "setting": "[8]; chloride replaced by gluconate", "value": "reduction of current"}, {"measurement": "dose dependence of effect on whole-cell current", "setting": "[8]; varying concentrations", "value": "dose-dependent"}, {"measurement": "current/voltage relationship", "setting": "[8]; varying concentrations of milrinone, clamp -150 mV to +50 mV", "value": "linear"}, {"measurement": "chloride efflux rate increase (chloride transport) in the CF cells", "setting": "[1]", "value": "neither agent alone elicited a rate increase"}, {"measurement": "cAMP increase compared with isoproterenol alone", "setting": "[6]", "value": "not significantly above that of isoproterenol alone"}, {"measurement": "increase in chloride efflux rate", "setting": "[4]", "value": "greatest increase in chloride efflux rate"}]}, {"compound": "COc1ccc(C2CNC(=O)C2)cc1OC1CCCC1", "note": "(stereo not shown) [rolipram]", "values": [{"measurement": "increase in chloride efflux rate", "setting": "[4]", "value": "Only the inhibitors specific for type III phosphodiesterases produced detectable increases"}]}]}
